Laboratory results reported in patent publication US4900725A, “Steroids including a spiro ring in position 17, the process for their preparation and their use” (Roussel Uclaf, priority 1986, dated 1990).

Assays:
[1] = target: T1, Progestogene receptor of rabbit uterus (Oryctolagus cuniculus, UniProt P06186); assay: Progestogene receptor of rabbit uterus, relative bonding affinity (RBA); format: binding; conditions: for Relative bonding affinity (RBA), Progestogen, 2 H: incubation 2 H at 0° C.; for Relative bonding affinity (RBA), Progestogen, 2 H / Relative bonding affinity (RBA), Progestogen, 24 H: versus cold reference hormone, tritiated R; for Relative bonding affinity (RBA), Progestogen, 24 H: incubation 24 H at 0° C.
T1 construct: the uterus is removed, weighed and homogenized at 0° C; from tissue; host or cells: uterus of estradiol-treated impuberal rabbits, 105,000 g supernatant (cytosol)
T1 sequence (P06186 1-930): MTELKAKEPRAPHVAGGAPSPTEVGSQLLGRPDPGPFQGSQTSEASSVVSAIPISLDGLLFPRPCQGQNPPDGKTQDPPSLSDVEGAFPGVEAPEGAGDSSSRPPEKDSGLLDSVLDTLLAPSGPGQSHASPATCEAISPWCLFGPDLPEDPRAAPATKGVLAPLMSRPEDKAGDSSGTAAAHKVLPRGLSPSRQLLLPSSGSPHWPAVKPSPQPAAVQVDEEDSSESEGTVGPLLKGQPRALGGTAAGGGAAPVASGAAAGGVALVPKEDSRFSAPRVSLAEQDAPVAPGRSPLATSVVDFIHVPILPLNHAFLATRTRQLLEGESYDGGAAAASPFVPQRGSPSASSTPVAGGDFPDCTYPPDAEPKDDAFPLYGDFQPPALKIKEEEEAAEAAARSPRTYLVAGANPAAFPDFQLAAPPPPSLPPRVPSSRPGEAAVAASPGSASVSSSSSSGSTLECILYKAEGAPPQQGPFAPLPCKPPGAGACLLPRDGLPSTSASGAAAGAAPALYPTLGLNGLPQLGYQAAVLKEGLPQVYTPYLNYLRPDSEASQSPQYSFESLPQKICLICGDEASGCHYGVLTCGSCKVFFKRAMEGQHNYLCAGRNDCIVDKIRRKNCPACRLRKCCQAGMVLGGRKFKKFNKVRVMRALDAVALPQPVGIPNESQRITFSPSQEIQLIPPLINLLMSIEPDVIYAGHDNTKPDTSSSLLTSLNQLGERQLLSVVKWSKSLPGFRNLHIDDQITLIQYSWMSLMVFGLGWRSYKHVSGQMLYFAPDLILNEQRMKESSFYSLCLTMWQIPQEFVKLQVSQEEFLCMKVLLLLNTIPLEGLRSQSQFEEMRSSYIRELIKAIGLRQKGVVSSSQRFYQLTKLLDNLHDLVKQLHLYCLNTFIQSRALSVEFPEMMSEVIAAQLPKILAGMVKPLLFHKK
Method: Progestogene receptor of rabbit uterus
Impuberal rabbits weighing about 1 kg receive a cutaneous application of […] of estradiol. 5 days after this treatment, the animals are killed, the uterus is removed, weighed and homogenized at 0° C., using a Potter teflon-glass, in a buffered solution TS (tirs 10 mM, saccharose 0.25 M, HCl pH 7.4) (1 g of tissue for 50 ml of TS). The homogenate is then ultra-centrifuged (105,000 g×90 min.) at 0° C.
Aliquots of the supernatant so obtained are incubated at 0° C. for a time t, with a constant concentration (T) of tritiated product R (17,21-dimethyl-19-nor-4,9-pregnadiene-3,20-dione) in the presence of increasing concentrations (0-2500.10^-9 M either of R cold, or of cold progesterone, or of the cold product under test. The concentration (B) of bonded triated (R) is then measured in each incubate by the technique of adsorption on carbon dextran.
(§1) Calculation of the relative bonding affinity
(§2) The calculation of the relative bonding affinity (RBA) is the same for all the receptors.
(§3) The two following curves are drawn: the percentage of bonded tritiated hormone B/T as a function of the concentration of the cold reference hormone, and B/T as a function of the logarithm of the concentration of the cold product under test. The straight line of the equation [formula] is determined. B/T max=percentage of tritiated hormone bonded for an incubation of this tritiated hormone at the concentration (T). B/T min=percentage of tritiated hormone bonded for an incubation of this tritiated hormone at the concentration (T) in the presence of a great excess of cold hormone (2,500.10^-9 M).
(§4) The intersections of the straight line I50 with the curves enables the concentrations of the cold reference hormone (CH) and of the cold product under test (CX) to be evaluated which inhibit by 50% the bonding of the tritiated hormone on the receptor.
(§5) The relative bonding affinity (RBA) of the product under test is determined by the equation: [formula]

[2] = test system: thymocytes of suprarenalectomized rats; assay: Antiglucocorticoid activity: inhibition of the effect of dexamethasone on tritiated uridine incorporation in thymocytes; format: cell-based; conditions: Rattus norvegicus, Thymocyte, 5.10^-8 M dexamethasone, 37° C., 30 hours; for inhibition at 1 µM: product at 10^-6 M; for inhibition at 0.1 µM: product at 10^-7 M; for inhibition at 0.01 µM: product at 10^-8 M
Method: II. Antiglucocorticoid activity
The technique used derives from the method described by Dausse et Col. in "Molecular Pharmacology", 13, 948-953, (1977) ("the relationship between glucocorticoid structure and effects upon Thymocytes") for the thymocytes of mice.
The thymocytes of suprarenalectomized rats are incubated at 37° C. for 30 hours in a nutritive medium containing 5.10^-8 M of dexamethasone in the presence or not of a product being studied, at different concentrations. Tritiated uridine is added, and the incubation is continued for one hour. The incubates are cooled, and treated with a 5% solution of trichloroacetic acid, then filtered on Whatman GF/A paper, and washed three times with a 5% trichloroacetic acid solution. The radio-activity retained by the filter is determined.
The products of examples 1 to 4 oppose this effect.

[3] = target: T2, Glucocorticoid receptor of the rat thymus (Rattus norvegicus, UniProt P06536); assay: Glucocorticoid receptor of the rat thymus, relative bonding affinity (RBA); format: binding, rat (Sprague-Dawley); conditions: for Relative bonding affinity (RBA), Glucocorticoid, 4 H: incubation 4 H at 0° C.; for Relative bonding affinity (RBA), Glucocorticoid, 4 H / Relative bonding affinity (RBA), Glucocorticoid, 24 H: versus cold dexamethasone, tritiated dexamethasone; for Relative bonding affinity (RBA), Glucocorticoid, 24 H: incubation 24 H at 0° C.
T2 construct: the thymus is removed and homogenized at 0° C. in a buffer; from tissue; host or cells: thymus of adrenalectomized male Sprague-Dawley rats, 105,000 g supernatant (cytosol)
T2 sequence (P06536 1-795): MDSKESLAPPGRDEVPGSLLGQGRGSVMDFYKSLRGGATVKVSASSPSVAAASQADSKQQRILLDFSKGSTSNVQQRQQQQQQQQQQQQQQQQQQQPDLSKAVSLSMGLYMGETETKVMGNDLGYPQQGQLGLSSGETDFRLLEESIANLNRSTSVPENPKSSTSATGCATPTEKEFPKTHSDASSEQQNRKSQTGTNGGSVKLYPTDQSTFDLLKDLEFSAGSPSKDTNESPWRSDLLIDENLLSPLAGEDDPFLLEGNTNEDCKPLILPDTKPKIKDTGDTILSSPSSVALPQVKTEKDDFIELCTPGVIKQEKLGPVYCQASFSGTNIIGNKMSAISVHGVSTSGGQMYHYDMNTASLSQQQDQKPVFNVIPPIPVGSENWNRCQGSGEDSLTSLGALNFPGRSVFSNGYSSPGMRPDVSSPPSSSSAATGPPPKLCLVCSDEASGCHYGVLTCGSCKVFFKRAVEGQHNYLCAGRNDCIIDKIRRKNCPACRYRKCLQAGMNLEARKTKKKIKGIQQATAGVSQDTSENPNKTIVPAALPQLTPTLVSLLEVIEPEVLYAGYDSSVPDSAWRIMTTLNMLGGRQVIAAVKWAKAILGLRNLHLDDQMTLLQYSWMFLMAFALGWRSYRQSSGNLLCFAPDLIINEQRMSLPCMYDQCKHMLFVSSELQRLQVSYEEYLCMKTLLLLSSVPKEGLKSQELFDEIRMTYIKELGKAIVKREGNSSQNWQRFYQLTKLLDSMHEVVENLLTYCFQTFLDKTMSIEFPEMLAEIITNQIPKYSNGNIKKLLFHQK
Method: Glucocorticoid receptor of the rat thymus
Male Sprague-Dawley EOPS rats, weighing 160 to 200 g are suprerenalectomized. 4 to 8 days after this ablation, the animals are killed, and the thymus is removed and homogenized at 0° C. in a buffer, Tris 10 mM, saccharose 0.25M, dithiothreitol 2 mM, HCl pH 7.4, using a Potter polytetrafluoroethylene-glass (1 g of tissue for 10 ml of TS). The homogenate is then ultra-centrifuged (105,000 g×90 min.) at 0° C. Aliquots of the supernatant so obtained are incubated at 0° C. for a time (t) with a constant concentration (T) of tritiated dexamethasone in the presence of increasing concentrations (0-2,500.10^-9 M) either of cold dexamethasone, or of the cold product under test. The concentration of bonded tritiated dexamethasone (B) is then measured in each incubate by the technique of adsorption on carbon dextran.
as §1, §2, §3, §4, §5

[4] = test system: thymocytes of suprarenalectomized rats; conditions: general statement on glucocorticoids, in particular dexamethasone; cited from earlier work

CSc1ccc(C2CC3(C)C(CCC34CCCO4)C3CCC4=CC(=O)CCC4=C23)cc1 [Example 4, (17R) 4',5'-dihydro-11-beta-[4-(methylthio)phenyl]-spiro(estra-4,9-dien-17,2'-(3H)-furan)-3-one]
affinity for the progestogen receptor (in words) ([1]; conclusion from RBA): very marked affinity | Relative bonding affinity (RBA), Progestogen, 2 H [1]: 78 | Relative bonding affinity (RBA), Progestogen, 24 H [1]: 388 | inhibition at 1 µM [2]: 80% | inhibition at 0.1 µM [2]: 21% | inhibition at 0.01 µM [2]: 0% | affinity for the glucocorticoid receptor (in words) ([3]; conclusion from RBA): very marked affinity | Relative bonding affinity (RBA), Glucocorticoid, 4 H [3]: 69 | Relative bonding affinity (RBA), Glucocorticoid, 24 H [3]: 39

C[C@@H]1C[C@H]2[C@@H]3CCC4=CC(=O)C=C[C@]4(C)[C@@]3(F)[C@@H](O)C[C@]2(C)[C@@]1(O)C(=O)CO [dexamethasone]
incorporation of tritiated uridine (in words) [4]: reduction in the incorporation of tritiated uridine

CN(C)c1ccc(C2CC3(C)C(CCC34C=CCO4)C3CCC4=CC(=O)CCC4=C23)cc1 (stereo not drawn) [Example 2, (17 R) 11-beta-[4-(dimethylamino)phenyl]-spiro (estra-4,9-dien-17,27-(5H)-furan)-3-one]
Relative bonding affinity (RBA), Progestogen, 2 H [1]: 23 | Relative bonding affinity (RBA), Progestogen, 24 H [1]: 222 | inhibition at 1 µM [2]: 32% | inhibition at 0.1 µM [2]: 18% | inhibition at 0.01 µM [2]: 0% | Relative bonding affinity (RBA), Glucocorticoid, 4 H [3]: 142 | Relative bonding affinity (RBA), Glucocorticoid, 24 H [3]: 96

CSc1ccc(C2CC3(C)C(CCC34C=CCO4)C3CCC4=CC(=O)CCC4=C23)cc1 [Example 3, (17R) 11-beta-[4-(methylthio)phenyl]-spiro(estra-4,9-dien-17,2'-(5H)-furan)-3-one]
Relative bonding affinity (RBA), Progestogen, 2 H [1]: 35 | Relative bonding affinity (RBA), Progestogen, 24 H [1]: 242 | inhibition at 1 µM [2]: 84% | inhibition at 0.1 µM [2]: 12% | inhibition at 0.01 µM [2]: 0% | Relative bonding affinity (RBA), Glucocorticoid, 4 H [3]: 56 | Relative bonding affinity (RBA), Glucocorticoid, 24 H [3]: 41

CN(C)c1ccc(C2CC3(C)C(CCC34CCCO4)C3CCC4=CC(=O)CCC4=C23)cc1 (stereo not shown) [Example 1]
Relative bonding affinity (RBA), Progestogen, 2 H [1]: 62 | Relative bonding affinity (RBA), Progestogen, 24 H [1]: 307 | inhibition at 1 µM [2]: 125% | inhibition at 0.1 µM [2]: 51% | inhibition at 0.01 µM [2]: 11% | Relative bonding affinity (RBA), Glucocorticoid, 4 H [3]: 118 | Relative bonding affinity (RBA), Glucocorticoid, 24 H [3]: 48
